# Measured values: article PMC10178848, “Modulating fast skeletal muscle contraction protects skeletal muscle in animal models of Duchenne muscular dystrophy” (The Journal of Clinical Investigation, 2023)
# Read-outs that look alike come from different tables or passages of the source.
# Assays:
# [1] = molecular target: T1, PLK3 (Homo sapiens, UniProt Q9H4B4); experiment: KINOMEscan scanEDGE; format: binding; details: 20 uM
# T1 construct: purchased Eurofins DiscoverX (KINOMEscan; SAFETYscan E/IC50 ELECT)
# [2] = molecular target: T2, IGF1R (Homo sapiens, UniProt P08069); experiment: KINOMEscan scanEDGE; format: binding; details: 20 uM
# T2 construct: purchased Eurofins DiscoverX (KINOMEscan; SAFETYscan E/IC50 ELECT)
# [3] = molecular target: T3, AKT2 (Homo sapiens, UniProt P31751); experiment: KINOMEscan scanEDGE; format: binding; details: 20 uM
# T3 construct: purchased Eurofins DiscoverX (KINOMEscan; SAFETYscan E/IC50 ELECT)
# T3 sequence (P31751 whole entry): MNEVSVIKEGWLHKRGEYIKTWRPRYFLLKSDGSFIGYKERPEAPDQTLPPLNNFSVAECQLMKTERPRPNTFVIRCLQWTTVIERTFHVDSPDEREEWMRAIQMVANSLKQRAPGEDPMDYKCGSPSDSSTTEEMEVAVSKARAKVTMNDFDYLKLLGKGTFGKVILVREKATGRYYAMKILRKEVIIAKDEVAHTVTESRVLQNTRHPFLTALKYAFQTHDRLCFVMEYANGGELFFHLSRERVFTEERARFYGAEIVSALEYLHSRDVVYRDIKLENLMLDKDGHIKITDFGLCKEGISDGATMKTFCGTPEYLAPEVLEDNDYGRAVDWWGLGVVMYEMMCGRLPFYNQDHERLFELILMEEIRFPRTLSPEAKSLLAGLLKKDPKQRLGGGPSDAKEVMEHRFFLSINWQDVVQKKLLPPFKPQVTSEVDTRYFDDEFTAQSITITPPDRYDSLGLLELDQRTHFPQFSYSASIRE
# [4] = molecular target: T4, PAK4 (Homo sapiens, UniProt O96013); experiment: KINOMEscan scanEDGE; format: binding; details: 20 uM
# T4 construct: purchased Eurofins DiscoverX (KINOMEscan; SAFETYscan E/IC50 ELECT)
# [5] = molecular target: T5, YANK3 (Homo sapiens, UniProt Q86UX6); experiment: KINOMEscan scanEDGE; format: binding; details: 20 uM
# T5 construct: purchased Eurofins DiscoverX (KINOMEscan; SAFETYscan E/IC50 ELECT)
# [6] = test system: rat cardiac muscle fibers; experiment: Skinned fiber force, rat cardiac trabeculae; set-up: dose or concentration left out as unconfirmed; details: rat cardiac trabecular strips
# Protocol: (§1) Measurement of isometric force in skinned fibers from rabbit psoas, rat soleus, and rat cardiac trabeculae were performed as described previously ([65]) with an 802D fiber system (Aurora Scientific). Muscle bundles were thawed from –80°C and placed in relaxing solution. Single fibers were transferred to the testing apparatus with steel pins connected to a force transducer and motor (model 403A and 322C, Aurora Scientific), and collodion glue was applied. Temperature was set to 15°C for skeletal fibers and 30°C for rat cardiac trabeculae. The wells of the 802D were filled with different ratios of relaxing and activating pCa solutions as detailed previously ([65]). All control solutions contained 1% final DMSO. Traces were compared between control and compound runs to evaluate isometric force and calcium sensitivity.
# [7] = test system: slow skeletal rat soleus fibers; experiment: Skinned fiber force, rat soleus; details: 100% type I, EDG-5506
# Protocol: as §1
# [8] = molecular target: T6, TIE2 (Homo sapiens, UniProt Q02763); experiment: KINOMEscan scanEDGE; format: binding; details: 20 uM
# T6 construct: purchased Eurofins DiscoverX (KINOMEscan; SAFETYscan E/IC50 ELECT)
# [9] = molecular target: T7, BRAF (Homo sapiens, UniProt P15056); experiment: KINOMEscan scanEDGE; format: binding; details: 20 uM
# T7 construct: purchased Eurofins DiscoverX (KINOMEscan; SAFETYscan E/IC50 ELECT)
# T7 sequence (P15056 whole entry): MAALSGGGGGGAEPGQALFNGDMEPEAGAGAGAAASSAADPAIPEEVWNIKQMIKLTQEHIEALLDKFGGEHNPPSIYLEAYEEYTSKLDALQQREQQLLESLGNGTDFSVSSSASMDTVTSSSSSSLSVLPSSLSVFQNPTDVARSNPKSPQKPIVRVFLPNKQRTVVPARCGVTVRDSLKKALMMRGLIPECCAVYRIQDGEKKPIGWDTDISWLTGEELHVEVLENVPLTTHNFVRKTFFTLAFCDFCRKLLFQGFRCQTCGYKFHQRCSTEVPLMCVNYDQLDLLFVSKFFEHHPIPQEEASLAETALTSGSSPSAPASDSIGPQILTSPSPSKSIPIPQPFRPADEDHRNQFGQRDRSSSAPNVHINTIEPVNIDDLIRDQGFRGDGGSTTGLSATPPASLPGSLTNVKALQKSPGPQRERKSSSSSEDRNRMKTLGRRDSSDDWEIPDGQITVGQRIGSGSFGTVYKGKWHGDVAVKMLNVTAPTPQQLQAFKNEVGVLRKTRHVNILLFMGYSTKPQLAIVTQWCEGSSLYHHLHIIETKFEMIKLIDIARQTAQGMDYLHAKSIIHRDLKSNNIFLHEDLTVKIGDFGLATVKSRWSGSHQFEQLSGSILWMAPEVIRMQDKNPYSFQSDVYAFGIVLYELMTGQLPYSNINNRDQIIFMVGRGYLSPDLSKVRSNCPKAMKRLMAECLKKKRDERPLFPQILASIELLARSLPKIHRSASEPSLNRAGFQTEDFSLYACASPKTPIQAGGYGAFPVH
# [10] = molecular target: T8, CSNK1G2 (Homo sapiens, UniProt P78368); experiment: KINOMEscan scanEDGE; format: binding; details: 20 uM
# T8 construct: purchased Eurofins DiscoverX (KINOMEscan; SAFETYscan E/IC50 ELECT)
# Protocol: (§2) The specificity of EDG-5506 for fast skeletal myosin over other, unrelated proteins was confirmed using two off-target binding and activity screens. […] A second off-target panel (SAFETYscan E/IC50 ELECT, Eurofins DiscoverX) tested in vitro enzyme activity against 78 proteins, including GPCR, ion channel, kinases, nuclear hormone receptors, and transporters. In all assays, the IC50 of EDG-5506 was more than 10 μM (Supplemental Data File 1).
# [11] = molecular target: T9, PIK3C2B (Homo sapiens, UniProt O00750); experiment: KINOMEscan scanEDGE; format: binding; details: 20 uM
# T9 construct: purchased Eurofins DiscoverX (KINOMEscan; SAFETYscan E/IC50 ELECT)
# Protocol: as §2
# [12] = molecular target: T10, BTK (Homo sapiens, UniProt Q06187); experiment: KINOMEscan scanEDGE; format: binding; details: 20 uM
# T10 construct: purchased Eurofins DiscoverX (KINOMEscan; SAFETYscan E/IC50 ELECT)
# Protocol: as §2
# [13] = molecular target: T11, PIM3 (Homo sapiens, UniProt Q86V86); experiment: KINOMEscan scanEDGE; format: binding; details: 20 uM
# T11 construct: purchased Eurofins DiscoverX (KINOMEscan; SAFETYscan E/IC50 ELECT)
# Protocol: as §2
# [14] = molecular target: T12, PCTK1 (Homo sapiens, UniProt Q00536); experiment: KINOMEscan scanEDGE; format: binding; details: 20 uM
# T12 construct: purchased Eurofins DiscoverX (KINOMEscan; SAFETYscan E/IC50 ELECT)
# Protocol: as §2
# [15] = molecular target: T13, JNK2 (Homo sapiens, UniProt P45984); experiment: KINOMEscan scanEDGE; format: binding; details: 20 uM
# T13 construct: purchased Eurofins DiscoverX (KINOMEscan; SAFETYscan E/IC50 ELECT)
# Protocol: as §2
# [16] = molecular target: T14, PIM1 (Homo sapiens, UniProt P11309); experiment: KINOMEscan scanEDGE; format: binding; details: 20 uM
# T14 construct: purchased Eurofins DiscoverX (KINOMEscan; SAFETYscan E/IC50 ELECT)
# T14 sequence (P11309 whole entry): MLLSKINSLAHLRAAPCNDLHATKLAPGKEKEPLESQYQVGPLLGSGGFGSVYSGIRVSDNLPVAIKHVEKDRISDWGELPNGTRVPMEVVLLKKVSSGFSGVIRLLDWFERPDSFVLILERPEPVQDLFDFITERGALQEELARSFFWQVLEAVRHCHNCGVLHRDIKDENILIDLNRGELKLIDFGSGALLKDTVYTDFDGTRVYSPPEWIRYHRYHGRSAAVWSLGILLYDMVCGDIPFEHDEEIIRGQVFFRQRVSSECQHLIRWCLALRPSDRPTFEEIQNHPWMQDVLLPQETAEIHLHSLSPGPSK
# Protocol: as §2
# [17] = molecular target: T15, DCAMKL1 (Homo sapiens, UniProt O15075); experiment: KINOMEscan scanEDGE; format: binding; details: 20 uM
# T15 construct: purchased Eurofins DiscoverX (KINOMEscan; SAFETYscan E/IC50 ELECT)
# Protocol: as §2
# [18] = molecular target: T16, EPHA2 (Homo sapiens, UniProt P29317); experiment: KINOMEscan scanEDGE; format: binding; details: 20 uM
# T16 construct: purchased Eurofins DiscoverX (KINOMEscan; SAFETYscan E/IC50 ELECT)
# Protocol: as §2
# [19] = molecular target: T17, KIT(V559D,T670I) (Homo sapiens, UniProt P10721, T670I/V559D); experiment: KINOMEscan scanEDGE; format: binding; details: 20 uM
# T17 construct: purchased Eurofins DiscoverX (KINOMEscan; SAFETYscan E/IC50 ELECT)
# T17 sequence (P10721 26-976 V559D/T670I): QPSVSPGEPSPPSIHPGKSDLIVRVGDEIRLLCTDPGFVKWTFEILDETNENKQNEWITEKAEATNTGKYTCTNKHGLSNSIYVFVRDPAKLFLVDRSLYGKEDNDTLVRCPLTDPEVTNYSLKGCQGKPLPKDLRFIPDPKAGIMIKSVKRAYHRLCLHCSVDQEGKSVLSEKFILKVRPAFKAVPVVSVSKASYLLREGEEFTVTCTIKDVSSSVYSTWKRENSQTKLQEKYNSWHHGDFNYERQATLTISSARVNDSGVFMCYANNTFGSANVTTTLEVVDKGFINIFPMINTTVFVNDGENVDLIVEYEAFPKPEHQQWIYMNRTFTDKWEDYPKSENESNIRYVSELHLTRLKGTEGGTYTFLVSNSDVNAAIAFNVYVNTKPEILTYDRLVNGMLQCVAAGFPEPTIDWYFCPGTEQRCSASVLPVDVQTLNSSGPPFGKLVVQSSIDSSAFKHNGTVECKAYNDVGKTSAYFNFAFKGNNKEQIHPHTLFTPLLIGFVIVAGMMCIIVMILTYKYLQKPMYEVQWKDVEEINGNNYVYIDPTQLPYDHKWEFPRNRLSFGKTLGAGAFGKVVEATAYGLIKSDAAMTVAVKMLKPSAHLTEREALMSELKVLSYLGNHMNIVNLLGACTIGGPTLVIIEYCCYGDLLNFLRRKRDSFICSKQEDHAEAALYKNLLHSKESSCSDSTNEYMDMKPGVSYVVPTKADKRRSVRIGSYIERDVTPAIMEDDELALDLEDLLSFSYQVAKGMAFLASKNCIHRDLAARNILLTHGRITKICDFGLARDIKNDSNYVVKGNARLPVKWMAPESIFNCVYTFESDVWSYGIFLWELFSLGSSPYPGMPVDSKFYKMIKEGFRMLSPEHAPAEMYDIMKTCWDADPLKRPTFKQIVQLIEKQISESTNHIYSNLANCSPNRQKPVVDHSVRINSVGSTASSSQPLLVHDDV
# Protocol: as §2
# [20] = molecular target: T18, MLK1 (Homo sapiens, UniProt P80192); experiment: KINOMEscan scanEDGE; format: binding; details: 20 uM
# T18 construct: purchased Eurofins DiscoverX (KINOMEscan; SAFETYscan E/IC50 ELECT)
# Protocol: as §2
# [21] = molecular target: T19, TYK2(JH1domain-catalytic) (Homo sapiens, UniProt P29597); experiment: KINOMEscan scanEDGE; format: binding; details: 20 uM
# T19 construct: TYK2(JH1domain-catalytic); purchased Eurofins DiscoverX (KINOMEscan; SAFETYscan E/IC50 ELECT)
# Protocol: as §2
# [22] = molecular target: T20, MKNK1 (Homo sapiens, UniProt Q9BUB5); experiment: KINOMEscan scanEDGE; format: binding; details: 20 uM
# T20 construct: purchased Eurofins DiscoverX (KINOMEscan; SAFETYscan E/IC50 ELECT)
# Protocol: as §2
# [23] = molecular target: T21, FGFR2 (Homo sapiens, UniProt P21802); experiment: KINOMEscan scanEDGE; format: binding; details: 20 uM
# T21 construct: purchased Eurofins DiscoverX (KINOMEscan; SAFETYscan E/IC50 ELECT)
# Protocol: as §2
# [24] = molecular target: T22, KIT (Homo sapiens, UniProt P10721); experiment: KINOMEscan scanEDGE; format: binding; details: 20 uM
# T22 construct: purchased Eurofins DiscoverX (KINOMEscan; SAFETYscan E/IC50 ELECT)
# T22 sequence (P10721 26-976): as the sequence (P10721 26-976 V559D/T670I) above, with D534V, I645T counted along it
# Protocol: as §2
# [25] = molecular target: T23, AKT1 (Homo sapiens, UniProt P31749); experiment: KINOMEscan scanEDGE; format: binding; details: 20 uM
# T23 construct: purchased Eurofins DiscoverX (KINOMEscan; SAFETYscan E/IC50 ELECT)
# Protocol: as §2
# [26] = molecular target: T24, MEK1 (Homo sapiens, UniProt Q02750); experiment: KINOMEscan scanEDGE; format: binding; details: 20 uM
# T24 construct: purchased Eurofins DiscoverX (KINOMEscan; SAFETYscan E/IC50 ELECT)
# T24 sequence (Q02750 whole entry): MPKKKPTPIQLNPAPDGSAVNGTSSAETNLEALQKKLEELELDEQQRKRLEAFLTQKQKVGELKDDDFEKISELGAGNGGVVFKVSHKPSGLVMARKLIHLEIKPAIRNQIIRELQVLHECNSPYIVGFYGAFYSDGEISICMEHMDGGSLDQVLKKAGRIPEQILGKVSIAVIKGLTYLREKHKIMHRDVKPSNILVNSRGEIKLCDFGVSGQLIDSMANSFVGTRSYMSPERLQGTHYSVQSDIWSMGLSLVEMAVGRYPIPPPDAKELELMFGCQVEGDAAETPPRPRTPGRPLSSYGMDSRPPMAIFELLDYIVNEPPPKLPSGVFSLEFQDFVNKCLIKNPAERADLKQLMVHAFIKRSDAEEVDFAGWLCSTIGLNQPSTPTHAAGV
# [27] = test system: WT or mdx mice; experiment: Forelimb grip strength; format: in vivo, mouse; details: single doses up to 10 mg/kg, 4 hours after oral administration
# Protocol: Prior to in vivo assessments, mice were dosed PO after a 2-hour fast with 10 mL/Kg suspensions. Grip strength and rotarod assessments were performed masked, 4 hours after dosing using published protocols ([66], [67]). Grip strength was performed with a Columbus Instruments Rodent Force Meter. Forepaw strength represented the average of 5 trials with 30-second rest periods, normalized by BW. Rotarod endurance was performed with a Columbus Instruments RotaMax. Mice were placed on the device drum at 1 rpm, which accelerated 1 rpm every 3 seconds to 12 rpm and a maximal time of 500 seconds. This was repeated 3 times with a 3-minute rest and total time reported. Voluntary wheel running performance was assessed with a customized system. Timestamped RPMs were measured 24 hours per day by infrared sensors, and a custom software calculated distance. Whole-body EBD was visualized after intravenous administration ([35]). EBD in PBS at 10 mg/mL was sterile filtered, and 50 μL/10 g BW was injected via tail vein. After 24 hours, animals were sacrificed, skin was removed and fixed in 4% formalin for 24 hours, and photographed using a Leica/Lumix camera.
# [28] = molecular target: T25, CSF1R (Homo sapiens, UniProt P07333); experiment: KINOMEscan scanEDGE; format: binding; details: 20 uM
# T25 construct: purchased Eurofins DiscoverX (KINOMEscan; SAFETYscan E/IC50 ELECT)
# T25 sequence (P07333 20-972): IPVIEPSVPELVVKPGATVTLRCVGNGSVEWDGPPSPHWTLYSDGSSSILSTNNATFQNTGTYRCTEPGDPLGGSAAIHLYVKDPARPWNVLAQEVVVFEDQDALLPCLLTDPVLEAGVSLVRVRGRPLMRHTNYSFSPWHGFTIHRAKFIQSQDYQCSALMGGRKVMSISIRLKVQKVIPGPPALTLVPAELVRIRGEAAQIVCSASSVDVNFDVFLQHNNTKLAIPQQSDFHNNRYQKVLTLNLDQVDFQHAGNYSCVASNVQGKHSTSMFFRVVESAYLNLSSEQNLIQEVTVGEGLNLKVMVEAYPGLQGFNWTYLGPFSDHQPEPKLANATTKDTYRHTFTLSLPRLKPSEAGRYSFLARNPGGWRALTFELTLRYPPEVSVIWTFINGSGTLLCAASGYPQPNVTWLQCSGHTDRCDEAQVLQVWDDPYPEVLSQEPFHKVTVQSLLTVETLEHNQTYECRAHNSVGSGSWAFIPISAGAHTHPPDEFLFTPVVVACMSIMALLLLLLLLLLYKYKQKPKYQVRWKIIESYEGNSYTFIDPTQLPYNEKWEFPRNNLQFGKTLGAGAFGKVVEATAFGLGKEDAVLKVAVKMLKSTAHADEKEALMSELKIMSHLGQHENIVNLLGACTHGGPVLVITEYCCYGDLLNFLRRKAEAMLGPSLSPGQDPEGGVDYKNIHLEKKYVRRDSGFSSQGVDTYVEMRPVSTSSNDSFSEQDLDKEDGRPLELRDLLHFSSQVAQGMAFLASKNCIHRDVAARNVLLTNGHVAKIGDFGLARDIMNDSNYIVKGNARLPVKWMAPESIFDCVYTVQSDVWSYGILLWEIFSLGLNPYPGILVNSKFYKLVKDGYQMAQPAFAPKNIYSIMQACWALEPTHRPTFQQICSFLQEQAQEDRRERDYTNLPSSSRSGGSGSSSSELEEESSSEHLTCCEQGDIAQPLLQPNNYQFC
# [29] = molecular target: T26, AR (Homo sapiens, UniProt P10275); experiment: SAFETYscan NHR Nuclear Translocation; format: cell-based; set-up: dose or concentration left out as unconfirmed
# T26 construct: purchased Eurofins DiscoverX (KINOMEscan; SAFETYscan E/IC50 ELECT)
# T26 sequence (P10275 whole entry): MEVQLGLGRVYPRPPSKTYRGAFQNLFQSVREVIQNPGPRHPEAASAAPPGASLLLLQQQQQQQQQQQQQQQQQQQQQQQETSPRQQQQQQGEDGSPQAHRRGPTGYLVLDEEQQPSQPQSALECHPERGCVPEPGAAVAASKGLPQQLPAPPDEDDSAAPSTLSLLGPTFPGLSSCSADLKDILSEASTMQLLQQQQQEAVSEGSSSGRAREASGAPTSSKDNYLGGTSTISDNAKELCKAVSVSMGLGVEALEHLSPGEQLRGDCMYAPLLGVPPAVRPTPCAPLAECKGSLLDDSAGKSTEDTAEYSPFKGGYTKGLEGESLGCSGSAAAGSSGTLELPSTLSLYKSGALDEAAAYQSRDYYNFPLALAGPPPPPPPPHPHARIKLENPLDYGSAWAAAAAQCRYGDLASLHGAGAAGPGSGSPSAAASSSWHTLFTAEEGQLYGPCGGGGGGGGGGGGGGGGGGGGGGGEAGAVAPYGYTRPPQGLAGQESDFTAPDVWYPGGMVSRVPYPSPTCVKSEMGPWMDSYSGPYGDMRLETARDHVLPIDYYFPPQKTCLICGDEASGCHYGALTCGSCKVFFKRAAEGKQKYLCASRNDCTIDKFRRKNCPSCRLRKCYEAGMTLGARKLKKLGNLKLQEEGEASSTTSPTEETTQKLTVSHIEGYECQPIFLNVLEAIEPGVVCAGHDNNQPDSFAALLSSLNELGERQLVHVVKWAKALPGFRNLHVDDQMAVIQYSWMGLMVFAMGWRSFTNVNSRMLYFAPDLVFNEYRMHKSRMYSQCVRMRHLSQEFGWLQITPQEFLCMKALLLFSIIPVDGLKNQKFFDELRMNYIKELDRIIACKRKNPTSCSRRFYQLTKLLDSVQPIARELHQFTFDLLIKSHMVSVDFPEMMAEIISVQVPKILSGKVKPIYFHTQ
# Protocol: as §2
smiles,measurement,setting,value
O=c1ccc(-c2cnc(OCC(F)(F)F)nc2)nn1Cc1cncc(F)c1 [EDG-5506],"binding, % of control",[1],95 % of control
same,"binding, % of control",[2],94 % of control
same,"binding, % of control",[3],93 % of control
same,"binding, % of control",[4],99 % of control
same,"binding, % of control",[5],88 % of control
same,"effect on force, cardiac muscle fibers",[6],no effect
same,"effect on force, slow skeletal fibers",[7],no effect
same,"binding, % of control",[8],95 % of control
same,"binding, % of control",[9],91 % of control
same,"binding, % of control",[10],96 % of control
same,"binding, % of control",[11],100 % of control
same,"binding, % of control",[12],93 % of control
same,"binding, % of control",[13],99 % of control
same,"binding, % of control",[14],100 % of control
same,"binding, % of control",[15],96 % of control
same,"binding, % of control",[16],97 % of control
same,"binding, % of control",[17],76 % of control
same,"binding, % of control",[18],58 % of control
same,"binding, % of control",[19],100 % of control
same,"binding, % of control",[20],98 % of control
same,"binding, % of control",[21],87 % of control
same,"binding, % of control",[22],85 % of control
same,"binding, % of control",[23],84 % of control
same,"binding, % of control",[24],98 % of control
same,"binding, % of control",[25],100 % of control
same,"binding, % of control",[26],78 % of control
same,grip strength,[27],no effect
same,"binding, % of control",[28],100 % of control
same,Emax,[29]; read-out: Max Response (%) (Agonist),0%
same,Emax,[29]; read-out: Max Response (%) (Antagonist),0%
